# Assay results from patent US20080293571A1, “Insecticide organic fertilizer composition, process and method” (priority 2007, published 2008).
# Assay: Biodegradation of rotenone after the composition is poured onto soil
# Settings: rotenone in the composition
structure (smiles),measurement,setting,value
C=C(C)[C@H]1Cc2c(ccc3c2O[C@@H]2COc4cc(OC)c(OC)cc4[C@@H]2C3=O)O1 [rotenone],Time until substantially biodegraded after pouring or drenching the nest,,approximately 3 days
same,Time until biodegrading after pouring the solution onto the soil,stable in liquid form in the container,2 to 5 days
